The test system of assay [1] is H9c2 cells. The assay is described as follows: Cell cycle profile by flow cytometry (propidium iodide) in simulated ischemia. The note with it: ischemic H9c2 cells; 2.5 mM Creatine and/or 5 mM Ribose. The format is cell-based. The protocol: The cell cycle profile was analyzed by flow cytometry after DNA staining with propidium iodide (PI, Sigma, St. Louis, Mo.). Cells were washed with PBS and fixed with 70% ethanol at -20°C, centrifuged (15 min at 1800 rpm), resuspended in 1 ml PBS containing 50 µg/ml PI and incubated for 1 hour at room temperature Cells were then analyzed by flow cytometry in a FACSorter (Becton Dickinson). The percentage of cells in different phases of the cell cycle was calculated using the CellQuest software program (Becton Dickinson).

Assay [2] deals with H9c2 cells. Kind of assay: MTT cell viability assay in doxorubicin-treated cells. The format is cell-based. The note with it: H9c2 cells treated for 24 hours with 0.5 µM doxorubicin; for minimal effective concentration: Rattus norvegicus, MTT dose-response curve, read-out: minimum effective concentration required to improve viability (sufficient to induce protection). The protocol: Cells were seeded at a concentration of 1.8x10^3/well in 96-well plates and incubated at 37°C for 24 hours. Cells were then incubated for additional 24 hours after addition of water or doxorubicin (0.5 µM final concentration) in presence of different concentrations of Cr and/or Rib, as indicated in the figures. Cell viability was determined by the 2-(4,5-dimethyltriazol-2-yl)-2,5-diphenyl tetrazolium bromide assay (MTT, Sigma, St Louis, Mo). Briefly, after addition to each well of 20µl of the MTT solution in PBS at a concentration of 5 mg/ml, cells were incubated at 37°C for 4 hours. After removal of the supernatant, 100 µl of DMSO were added to dissolve the formazan salts produced and optical density (OD) was read at λ=540 nm. For each treatment, five replicates were performed. The viability index was calculated, for each treatment, as ODx/OD0, where ODx and OD0 are the average ODs at time x and at time zero.
The optimal working concentration was determined by a dose-response curve using the MTT assay (vital dye staining) in presence of Creatine and Ribose. To test the efficacy of creatine and ribose in maintaining cellular energy homeostasis, H9c2 cells were treated with doxorubicin, a well-known cardiotoxic agent that causes mitochondrial damage resulting in production of reactive oxygen species.
(In general: Tetrazolium dyes change colour on reduction, which living cells bring about.)

As for `CN(CC(=O)O)C(=N)N.O` [Creatine, Creatine monohydrate], the “change of the percentage of cells progressing from G1 to S phase” value in the assay on H9c2 cells [1] was “did not change”. Also, in the assay on H9c2 cells [2], the minimal effective concentration was 2500 µM. Regarding `COc1cccc2c1C(=O)c1c(O)c3c(c(O)c1C2=O)C[C@@](O)(C(=O)CO)C[C@@H]3O[C@H]1C[C@H](N)[C@H](O)[C@H](C)O1` [Doxo, doxorubicin, reference compound], the “decrease of viability compared to untreated cells” value in the assay on H9c2 cells [2] (MTT) worked out at 35%. As to `O=C[C@H](O)[C@H](O)[C@H](O)CO` [Ribose, D-ribose], the “change of the percentage of cells progressing from G1 to S phase” value in the assay with H9c2 cells [1] is “did not change”. Also, the minimal effective concentration with H9c2 cells [2] was found to be 5000 µM.

Values taken from patent publication EP2349249B1, “SYNERGISTIC COMPOSITION FOR RECOVERY AND REDUCTION OF MILD ISCHEMIC DAMAGE” (Giellepi S.p.A., priority 2008, dated 2010).
